The results in this text go back to patent US20230233690A1, “ANDROGEN RECEPTOR PROTEIN DEGRADERS” (THE REGENTS OF THE UNIVERSITY OF MICHIGAN, priority 2020, published 2023).

One data set concerns the target T1, AR protein (Homo sapiens, UniProt P10275).
T1 construct: endogenous in cells; host or cells: VCaP
T1 sequence (P10275 1-920): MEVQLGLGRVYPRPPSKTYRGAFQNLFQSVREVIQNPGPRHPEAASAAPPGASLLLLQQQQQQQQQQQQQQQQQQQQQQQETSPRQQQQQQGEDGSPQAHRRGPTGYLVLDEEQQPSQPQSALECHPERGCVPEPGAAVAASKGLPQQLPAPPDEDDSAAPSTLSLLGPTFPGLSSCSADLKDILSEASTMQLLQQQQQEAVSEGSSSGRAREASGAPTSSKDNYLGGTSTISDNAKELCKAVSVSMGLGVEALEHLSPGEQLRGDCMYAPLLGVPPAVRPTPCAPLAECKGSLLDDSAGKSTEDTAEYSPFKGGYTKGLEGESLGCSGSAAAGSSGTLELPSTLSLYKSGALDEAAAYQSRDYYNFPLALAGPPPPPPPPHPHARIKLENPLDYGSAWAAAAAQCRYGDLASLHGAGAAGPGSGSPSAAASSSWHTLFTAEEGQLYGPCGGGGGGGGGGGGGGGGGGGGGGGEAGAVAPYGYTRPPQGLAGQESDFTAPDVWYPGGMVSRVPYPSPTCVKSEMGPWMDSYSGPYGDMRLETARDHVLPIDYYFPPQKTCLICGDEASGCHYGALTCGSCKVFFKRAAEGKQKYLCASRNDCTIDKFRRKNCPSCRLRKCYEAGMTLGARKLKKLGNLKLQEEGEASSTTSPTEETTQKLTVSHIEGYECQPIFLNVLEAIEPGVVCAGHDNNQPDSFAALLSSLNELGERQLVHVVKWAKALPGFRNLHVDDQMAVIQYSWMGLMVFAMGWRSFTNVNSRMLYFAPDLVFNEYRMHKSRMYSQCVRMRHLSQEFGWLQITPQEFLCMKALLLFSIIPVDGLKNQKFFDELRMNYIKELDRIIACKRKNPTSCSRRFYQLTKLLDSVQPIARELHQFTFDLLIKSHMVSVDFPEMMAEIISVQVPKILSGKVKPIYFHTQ
As to the kind of experiment: Western blotting of AR protein degradation in VCaP cells. Format: cell-based. The method, then:
The treated cells were lysed with RIPA buffer. […] GAPDH was used as a loading control.
Bands were quantified with ImageJ software. The relative numbers of each band obtained from normalization with its corresponding GAPDH level were compared with Prism 8 software. The DC50 values were produced from Prism 8, and the DC90 values were calculated with an equation=Bottom+(Top−Bottom)/(1+10^((Log EC50−X)*HillSlope) based on DC50 and Hillslope values.
(Immunoblotting shows a protein as a band on a membrane.)

The nature of data set [1]: PK parameters in male mice (Table 9). Format: in vivo. The note with it: for Vd: read-out: Vss. The method, then:
The pharmacokinetics (PK) of representative Compounds of the Disclosure were evaluated in mice or rats to provide an assessment of their oral bioavaibility. All animal experiments were performed under the guidelines of the University of Michigan Committee for Use and Care of Animals and using an approved animal protocol.

The mark [2] stands for this setting: ICR, mouse, in vivo, IV 1 mg/kg.
[3] abbreviates: ICR, mouse, in vivo, IV 1 mg/kg, read-out: AUC(0-t).
Setting [4] is: ICR, mouse, in vivo, PO 3 mg/kg.
[5] abbreviates: ICR, mouse, in vivo, PO 3 mg/kg, read-out: AUC(0-t).
Where [6] appears, read: ICR, mouse, in vivo, PO 3 mg/kg, read-out: Cmax.
[7] abbreviates: ICR, mouse, in vivo, PO 3 mg/kg, read-out: Tmax.
[8] abbreviates: ICR, mouse, in vivo, IV 2 mg/kg.

Like-named read-outs stand apart in the source and are kept apart here.

In the case of `CN(c1ccc(C#N)c(Cl)c1)[C@H]1CC[C@H](NC(=O)c2ccc(N3CCN(C4CN(c5ccc6c(c5)C(=O)N(C5CCC(=O)NC5=O)C6=O)C4)CC3)cc2)CC1` (stereo partly shown) [Cpd. No. 238, N-((1r,4r)-4-((3-chloro-4-cyanophenyl)(methyl)amino)cyclohexyl)-4-(4-(1-(2-(2,6-dioxopiperidin-3-yl)-1,3-dioxoisoindolin-5-yl)azetidin-3-yl)piperazin-1-yl)benzamide], the “% AR protein degradation in VCaP Cells” value at AR protein (0.001 μM) is recorded as 78%. At AR protein (0.01 μM), the “% AR protein degradation in VCaP Cells” value is recorded as 90%. Moreover, the “% AR protein degradation in VCaP Cells” value on AR protein (0.1 μM) turned out to be 89%. The “% AR protein degradation in VCaP Cells” value at AR protein (1 μM) is 78%. In addition, in data set [1] (IV 2 mg/kg), the AUC(0-t) (as a rule, exposure summed from dosing to a finite time, without extrapolation to infinity) is 6481 ng·h/mL; the Cl came to 5 mL/min/kg; the T1/2 is 5.5 h; the Vss (commonly the apparent volume that relates the amount in the body to the concentration in plasma or blood) is listed as 1.8 L/kg. In data set [1] (PO 5 mg/kg), the “AUC(0-t)” value was determined as 8254 ng·h/mL; the Cmax (as a rule, the peak of the concentration-time curve) is 1140 ng/mL; the T1/2 was 4.6 h; the Tmax (commonly the time at which the peak concentration occurs) is on record as 2.0 h. The compound further gave a F in data set [1] (PO 5 mg/kg vs IV 2 mg/kg) of 51%.
Consider `N#Cc1ccc(O[C@H]2CC[C@H](NC(=O)c3ccc(N4CCN(C5CCN(c6ccc7c(c6)C(=O)N(C6CCC(=O)NC6=O)C7=O)CC5)CC4)cc3)CC2)cc1Cl` (stereo partly shown) [compound 222, N-((1r,4r)-4-(3-chloro-4-cyanophenoxy)cyclohexyl)-4-(4-(1-(2-(2,6-dioxopiperidin-3-yl)-1,3-dioxoisoindolin-5-yl)piperidin-4-yl)piperazin-1-yl)benzamide], for which the “% AR protein degradation in VCaP Cells” value at AR protein (0.001 μM) stood at 63%; on AR protein (0.01 μM), 59%; on AR protein (0.1 μM), 60%; at AR protein (1 μM) it was 43%. Also, in data set [1] (setting [2]), the clearance (usually the volume of plasma or blood freed of the substance per unit of time) is 7.33 mL/min/kg. In addition, the half-life – broadly, the time in which the quantity being followed falls by half – in data set [1] (setting [2]) was 9 h; in data set [1] (setting [4]), 11.3 h. Also, the AUC(0-t) in data set [1] (setting [3]) was 1980 ng·h/mL; in data set [1] (setting [5]), 1990 ng·h/mL. Moreover, the Vd in data set [1] (setting [2]) was determined as 4.75 L/kg. The Cmax in data set [1] (setting [6]) worked out at 122 ng/mL. Moreover, in data set [1] (setting [7]), the Tmax is 6 h. The compound also showed a F in data set [1] (PO 3 mg/kg vs IV 1 mg/kg) of 33%.
`N#Cc1ccc(O[C@H]2CC[C@H](NC(=O)c3ccc(N4CCC(N5CCN(c6ccc7c(c6)C(=O)N(C6CCC(=O)NC6=O)C7=O)CC5)CC4)cc3)CC2)cc1Cl` (stereo partly shown) [compound 223, N-((1r,4r)-4-(3-chloro-4-cyanophenoxy)cyclohexyl)-4-(4-(4-(2-(2,6-dioxopiperidin-3-yl)-1,3-dioxoisoindolin-5-yl)piperazin-1-yl)piperidin-1-yl)benzamide]: the “% AR protein degradation in VCaP Cells” value on AR protein (0.001 μM) is 73%. Further, the “% AR protein degradation in VCaP Cells” value on AR protein (0.01 μM) came to 91%. In addition, at AR protein (0.1 μM), the “% AR protein degradation in VCaP Cells” value was found to be 85%. In addition, at AR protein (1 μM), the “% AR protein degradation in VCaP Cells” value amounted to 75%. Further, in data set [1] (setting [2]), the clearance is 6.5 mL/min/kg and the Vd is 3.04 L/kg. In addition, in data set [1] (IV 1 mg/kg), the “AUC(0-t)” value worked out at 2425 ng·h/mL and the T1/2 amounted to 6.1 h. Besides, in data set [1] (PO 3 mg/kg), the “AUC(0-t)” value came to 2154 ng·h/mL, the Cmax is recorded as 207 ng/mL, the T1/2 amounted to 5.6 h and the time of peak concentration (Tmax) turned out to be 4.0 h. In data set [1] (PO 3 mg/kg vs IV 1 mg/kg), this compound had an F of 30%.
On to `N#Cc1ccc(O[C@H]2CC[C@H](NC(=O)c3ccc(N4CCN(C5CN(c6ccc7c(c6)C(=O)N(C6CCC(=O)NC6=O)C7=O)C5)CC4)cc3)CC2)cc1Cl` (stereo partly shown) [compound 225, N-((1r,4r)-4-(3-chloro-4-cyanophenoxy)cyclohexyl)-4-(4-(1-(2-(2,6-dioxopiperidin-3-yl)-1,3-dioxoisoindolin-5-yl)azetidin-3-yl)piperazin-1-yl)benzamide], for which the “% AR protein degradation in VCaP Cells” value is recorded as 61% at AR protein (0.001 μM), 48% on AR protein (0.01 μM), 15% at AR protein (0.1 μM) and −23% at AR protein (1 μM). The compound further gave a clearance in data set [1] (setting [8]) of 4.33 mL/min/kg. The half-life in data set [1] (setting [8]) is 6.58 h; in data set [1] (ICR, mouse, in vivo, PO 5 mg/kg), 5.8 h. For the same compound, the AUC(0-t) was found to be 6760 ng·h/mL in data set [1] (ICR, mouse, in vivo, IV 2 mg/kg, read-out: AUC(0-t)) and 13100 ng·h/mL in data set [1] (ICR, mouse, in vivo, PO 5 mg/kg, read-out: AUC(0-t)). Also, the Vd in data set [1] (setting [8]) turned out to be 2.23 L/kg. Further, the Cmax in data set [1] (ICR, mouse, in vivo, PO 5 mg/kg, read-out: Cmax) was 2130 ng/mL. For the same compound, in data set [1] (ICR, mouse, in vivo, PO 5 mg/kg, read-out: Tmax), the Tmax was 2 h. The F in data set [1] (PO 5 mg/kg vs IV 2 mg/kg) came out at 77%.
Take `CN(c1ccc(C#N)c(Cl)c1)[C@H]1CC[C@H](NC(=O)c2ccc(N3CCN(CC4CCN(c5ccc6c(c5)C(=O)N(C5CCC(=O)NC5=O)C6=O)CC4)CC3)cc2)CC1` (stereo partly shown) [compound 233, N-((1r,4r)-4-((3-chloro-4-cyanophenyl)(methyl)amino)cyclohexyl)-4-(4-((1-(2-(2,6-dioxopiperidin-3-yl)-1,3-dioxoisoindolin-5-yl)piperidin-4-yl)methyl)piperazin-1-yl)benzamide]: the “% AR protein degradation in VCaP Cells” value at AR protein (0.001 μM) is on record as 49%; at AR protein (0.01 μM) it was 78%; on AR protein (0.1 μM) it was 87%; at AR protein (1 μM), 76%. Moreover, the clearance in data set [1] (setting [2]) was 8.5 mL/min/kg. The values for the half-life in data set [1] (setting [2]) and in data set [1] (setting [4]) were 26 h and 41 h, respectively. Further, the figures for the AUC(0-t) in data set [1] (setting [3]) and in data set [1] (setting [5]) were 1040 ng·h/mL and 940 ng·h/mL, respectively. The Vd in data set [1] (setting [2]) was determined as 16.8 L/kg. Also, the Cmax in data set [1] (setting [6]) is 60 ng/mL. The Tmax in data set [1] (setting [7]) was determined as 4 h. The F in data set [1] (PO 3 mg/kg vs IV 1 mg/kg) is listed as 30%.
`CN(c1ccc(C#N)c(Cl)c1)[C@H]1CC[C@H](NC(=O)c2ccc(N3CCC(CN4CCN(c5ccc6c(c5)C(=O)N(C5CCC(=O)NC5=O)C6=O)CC4)CC3)cc2)CC1` (stereo partly shown) [compound 234, N-((1r,4r)-4-((3-chloro-4-cyanophenyl)(methyl)amino)cyclohexyl)-4-(4-((4-(2-(2,6-dioxopiperidin-3-yl)-1,3-dioxoisoindolin-5-yl)piperazin-1-yl)methyl)piperidin-1-yl)benzamide]: the “% AR protein degradation in VCaP Cells” value on AR protein (0.001 μM) amounted to 55%. On AR protein (0.01 μM), the “% AR protein degradation in VCaP Cells” value turned out to be 91%. Further, the “% AR protein degradation in VCaP Cells” value on AR protein (0.1 μM) was 93%. For the same compound, the “% AR protein degradation in VCaP Cells” value on AR protein (1 μM) came out at 90%. Also, in data set [1] (IV 1 mg/kg), the exposure AUC(0-t) worked out at 693 ng·h/mL, the Cl was 18.3 mL/min/kg, the T1/2 stood at 12.5 h and the Vss is on record as 17.6 L/kg. For the same compound, in data set [1] (PO 3 mg/kg), the “AUC(0-t)” value was found to be 737.5 ng·h/mL, the Cmax is listed as 45.0 ng/mL, the T1/2 is given as 27.0 h and the Tmax turned out to be 6.0 h. This compound also yielded a F in data set [1] (PO 3 mg/kg vs IV 1 mg/kg) of 35%.
Consider `CN(c1ccc(C#N)c(Cl)c1)[C@H]1CC[C@H](NC(=O)c2ccc(N3CC(CN4CCN(c5ccc6c(c5)C(=O)N(C5CCC(=O)NC5=O)C6=O)CC4)C3)cc2)CC1` (stereo partly shown) [compound 239, N-((1r,4r)-4-((3-chloro-4-cyanophenyl)(methyl)amino)cyclohexyl)-4-(3-((4-(2-(2,6-dioxopiperidin-3-yl)-1,3-dioxoisoindolin-5-yl)piperazin-1-yl)methyl)azetidin-1-yl)benzamide], for which the “% AR protein degradation in VCaP Cells” value on AR protein (0.001 μM) is on record as 73%. Also, the “% AR protein degradation in VCaP Cells” value on AR protein (0.01 μM) is given as 91%. For the same compound, the “% AR protein degradation in VCaP Cells” value on AR protein (0.1 μM) was 95%. Further, the “% AR protein degradation in VCaP Cells” value on AR protein (1 μM) was found to be 94%. In addition, in data set [1] (IV 1 mg/kg), the “AUC(0-t)” value amounted to 1118 ng·h/mL, the Cl was found to be 13.2 mL/min/kg, the T1/2 amounted to 8.8 h and the Vss was determined as 8.25 L/kg. Moreover, in data set [1] (PO 3 mg/kg), the “AUC(0-t)” value came out at 1134 ng·h/mL, the Cmax is recorded as 92.2 ng/mL, the T1/2 worked out at 8.1 h and the Tmax was 4.0 h. The F in data set [1] (PO 3 mg/kg vs IV 1 mg/kg) was found to be 34%.
